The record followed here is patent US8501960B2, “Saxagliptin intermediates, saxagliptin polymorphs, and processes for preparation thereof” (Assia Chemical Industries Ltd., priority 2010, dated 2013).

The structures appear in SMILES notation.

This series is described as follows: Stability of crystalline compound M and Saxagliptin monohydrate form H-1 on storage, measured by HPLC. It is filed as physicochemical. The protocol: Unless stated otherwise, the HPLC peak % referred to herein were measured using a UV detection having a wavelength of 220 nm.
Instrumental and Chromatographic Conditions
Instrument: HPLC system equipped with UV detector.
• Flow rate: about 1 mL/min • Injection volume: about 10 μL • Column: Waters XBridge C8, 150 mm×4.6 mm, 3.5 μm • Column temperature: 25° C. • Detector: DAD (UV) at wavelengths 220 nm • Mobile phase: Gradient elution with Solution A and Solution B (see Table 1) • Solution A: Buffer solution. Dissolve in water about 24.0 g of sodium octyl-1-sulfonate in 1000 mL volumetric flask, make up to the volume with water and adjust pH to 3.3 with phosphoric acid. • Solution B: Acetonitrile, HPLC grade
• Stop time: 25 minutes • Post time: 5 minutes • Diluent: Prepare a solution of 25% acetonitrile, 25% methanol, and 50% of the buffer solution (the one that is used in gradient elution). The Following Chemicals (or Equivalent) Should Be Used:
• 1. Blank: Use the diluent. • 2. Sample preparation: Prepare SXG sample solution with concentration of about 1.0 mg/mL prepare in duplicate Procedure
Samples of crystalline compound M and Saxagliptin monohydrate form H-1 were prepared and the amount of Saxagliptin and the amount of cyclic amidine were measured by HPLC at time zero (=time 0). Samples of crystalline compound M and Saxagliptin monohydrate form H-1 were maintained for 2 weeks, 1 month and 2 months, at the conditions described in the following table. Afterwards, the amount of Saxagliptin and the amount of cyclic amidine was measured by HPLC.

As for `CC(C)=N[C@H](C(=O)N1[C@H](C#N)C[C@@H]2C[C@@H]21)C12CC3CC(CC(O)(C3)C1)C2` [crystalline Compound M, (1S,3S,5S)-2-[(2S)-2-propan-2-ylideneamino-2-(3-hydroxy-1-adamantyl)acetyl]-2-azabicyclo[3.1.0]-hexane-3-carbonitrile], the “CA = cyclic amidine (amount by HPLC)” value by setting is: (40° C./40% RH, 1 month) “CA = 0.50%”; (40° C./40% RH, 2 months) “CA = 0.61%”; (40° C./40% RH, 2 weeks) “CA = 0.53%”; (40° C./40% RH, Time 0) “CA = 0.20%”; (50° C./0% RH, 1 month) “CA = 0.27%”; (50° C./0% RH, 2 months) “CA = 0.31%”. The “CA = cyclic amidine (amount by HPLC)” value reads like this: (50° C./0% RH, 2 weeks) “CA = 0.25%”; (50° C./0% RH, Time 0) “CA = 0.20%”. Moreover, the “SXG = Saxagliptin (amount by HPLC)” value is, setting by setting: (40° C./40% RH, 1 month) “SXG = 99.0%”; (40° C./40% RH, 2 months) “SXG = 99.0%”; (40° C./40% RH, 2 weeks) “SXG = 99.0%”; (40° C./40% RH, Time 0) “SXG = 99.6%”; (50° C./0% RH, 1 month) “SXG = 99.4%”; (50° C./0% RH, 2 months) “SXG = 99.4%”. The “SXG = Saxagliptin (amount by HPLC)” value (50° C./0% RH, 2 weeks) is listed as “SXG = 99.6%” and the “SXG = Saxagliptin (amount by HPLC)” value (50° C./0% RH, Time 0) is reported as “SXG = 99.6%”. In addition, the chemical stability entry (compared to Saxagliptin monohydrate form H-1) was “enhanced chemical stability”.

`N#C[C@@H]1C[C@@H]2C[C@@H]2N1C(=O)[C@@H](N)C12CC3CC(CC(O)(C3)C1)C2` [Saxaglitpin base monohydrate, Form H-1, (1S,3S,5S)-2-((2S)-2-Amino-2-(3-hydroxyadamantan-1-yl)-acetyl)-2-azabicyclo[3.1.0]hexane-3-carbonitrile]: the “CA = cyclic amidine (amount by HPLC)” value reads like this: (40° C./40% RH, 1 month) “CA = 5.8%”; (40° C./40% RH, 2 months) “CA = 11.5%”; (40° C./40% RH, 2 weeks) “CA = 4.0%”; (40° C./40% RH, Time 0) “CA = 0.50%”; (50° C./0% RH, 1 month) “CA = 1.3%”; (50° C./0% RH, 2 months) “CA = 2.1%”. Moreover, the “CA = cyclic amidine (amount by HPLC)” value reads like this: (50° C./0% RH, 2 weeks) “CA = 1.2%”; (50° C./0% RH, Time 0) “CA = 0.50%”. In addition, the “RRT1.14 (impurity amount by HPLC)” value runs as follows: (40° C./40% RH, 1 month) “RRT1.14 = 4.1%”; (40° C./40% RH, 2 months) “RRT1.14 = 7.7%”; (40° C./40% RH, 2 weeks) “RRT1.14 = 2.1%”; (50° C./0% RH, 1 month) “RRT1.14 = 1.1%”; (50° C./0% RH, 2 months) “RRT1.14 = 2.51%”; (50° C./0% RH, 2 weeks) “RRT1.14 = 0.4%”. The “SXG = Saxagliptin (amount by HPLC)” value by setting is: (40° C./40% RH, 1 month) “SXG = 86.8%”; (40° C./40% RH, 2 months) “SXG = 77.4%”; (40° C./40% RH, 2 weeks) “SXG = 93.1%”; (40° C./40% RH, Time 0) “SXG = 98.9%”; (50° C./0% RH, 1 month) “SXG = 96.9%”; (50° C./0% RH, 2 months) “SXG = 94.8%”. Further, the “SXG = Saxagliptin (amount by HPLC)” value is, setting by setting: (50° C./0% RH, 2 weeks) “SXG = 97.8%”; (50° C./0% RH, Time 0) “SXG = 98.9%”.
